How the values were obtained:
[1] = tested on: flare increase in the anterior chamber; assay: Anterior chamber flare after argon laser irradiation (flare cell meter); assay type: in vivo, pigmented rabbits; conditions: condition B
Text: (§1) Matured pigmented rabbits (Dutch rabbits of 2 kg body weight) were irradiated with laser at the iris using an argon laser equipment (product of NIDEK). In one group of the rabbits on the eyes, 8 irradiation points at the same interval on a circle line were made under the conditions of coagulation size of 50 micrometer, output of 1.0 Watt and irradiation time of 0.1 second (condition A). In other group of the rabbits, 8 irradiation points similar to those on the eyes were made under the conditions of coagulation size of 200 micrometer, output of 1.0 Watt and irradiation time of 0.2 second (condition B).
From 30 minutes prior to and until 30 minutes after irradiations, 0.1 mg/kg/minute of argatroban was administered intravenously from ear vein. Control group received only laser irradiation. Positive control group received 1000 U/kg of heparin intravenously 30 minutes prior to laser irradiation.
For argatroban eye drop, right eyes of the rabbits received 5 mg/ml solution of argatroban, while left eyes were used as a control without application of argatroban.
Further, the laser irradiation of condition B was effected and then the anterior chamber flare values were estimated using the flare cell meter at 30 minutes and 60 minutes after the irradiation.
The flare cell meter measures turbidity in the anterior chamber as the photon count. […]

[2] = tested on: fibrin formation in the anterior chamber; assay: Fibrin formation by administering self-plasma to the anterior chamber; assay type: in vivo, white rabbits; conditions: 150 microliter plasma and 50 microliter argatroban solution (10 mg/ml) injected to the anterior chamber; 24 hours after the administration
Description: Blood of matured white rabbits (2 kg in body weight) were taken and separated to give plasma. Two hundreds microliter of anterior chamber liquid was taken by conducting centesis into anterior chamber of the same rabbit. Then, 150 microliter of the plasma obained and 50 microliter of argatroban solution (10 mg/ml), 200 microliter in total, were injected to the anterior chamber from the same centesis portion. The control received 150 microliter of plasma and 50 microliter of physiological saline in the same manner at the anterior chamber. The fibrin formation in the anterior chamber 24 hours after the administration was observed and recorded.

[3] = tested on: fibrin formation in the rabbit anterior chamber; assay: Fibrin formation in the anterior chamber caused by laser irradiation (slit lamp microscope); assay type: in vivo, pigmented rabbits; conditions: 0.1 mg/kg/minute intravenously, 30 minutes after the irradiation
Description: In this example, a model of fibrin formation in the rabbit anterior chamber caused by laser irradiation was used as a measure for testing the action of argatroban. In this model, the seriousness of inflammation and amount of fibrin are determined proportional to the total energy of the laser irradiation. The amount of fibrin can be controled to the desired value by altering total energy of laser irradiation.
as §1
From 30 minutes prior to and until 30 minutes after irradiations, 0.1 mg/kg/minute of argatroban was administered intravenously from ear vein. Control group received only laser irradiation. Positive control group received 1000 U/kg of heparin intravenously 30 minutes prior to laser irradiation. […]
The fibrin formation was recorded photographically using a slit lamp microscope.

dog = assay: LD50 (acute toxicity), dog; assay type: in vivo; conditions: Female, i. v.
Text: (§2) In the following Table 2, the toxicological data of argatroban is shown.

[4] = LD50 (acute toxicity), dog; assay type: in vivo; conditions: in vivo, iv, Male, i. v.
Text: as §2

[5] = LD50 (acute toxicity), rat; conditions: in vivo
Text: as §2

[6] = LD50 (acute toxicity), mouse; conditions: in vivo
Text: as §2

Question: What does the source list for `CC1CNc2c(cccc2S(=O)(=O)N[C@@H](CCCNC(=N)N)C(=O)N2CC[C@@H](C)C[C@@H]2C(=O)O)C1.O` (mixture of isomers) [argatroban, (2R,4R)-4-methyl-1-[N^2-((RS)-3-methyl-1,2,3,4-tetrahydro-8-quinolinesulfonyl)-L-arginyl]-2-piperidinecarboxylic acid hydrate]?
Answer: photon count (/msec) ([1]; eye drop, solution of 5 mg/ml, 30 minutes after laser irradiation): 287.7 ± 99.2 (n=4) /msec; photon count (/msec) ([1]; eye drop, solution of 5 mg/ml, 60 minutes after laser irradiation): 341.2 ± 86.5 (n=4) /msec; photon count (/msec) ([1]; intravenous injection at 0.1 mg/kg/min, 30 minutes after laser irradiation): 417.7 ± 159.3 (n=4) /msec; photon count (/msec) ([1]; intravenous injection at 0.1 mg/kg/min, 60 minutes after laser irradiation): 356.9 ± 168.3 (n=4) /msec; fibrin formation [2]: No fibrin formation was observed; fibrin formation ([3]; condition A): no fibrin formation was also observed; fibrin formation ([3]; condition B): no fibrin formation was also observed; LD50 (dog): > 200 mg/kg; LD50 [4]: > 200 mg/kg; LD50 ([5]; ip, Female, i. p.): 409 mg/kg; LD50 ([5]; ip, Male, i. p.): 320 mg/kg; LD50 ([5]; iv, Female, i. v.): > 81 mg/kg; LD50 ([5]; iv, Male, i. v.): > 81 mg/kg; LD50 ([5]; po, Female, p. o.): > 15000 mg/kg; LD50 ([5]; po, Male, p. o.): > 15000 mg/kg; LD50 ([5]; sc, Female, subc.): 620 mg/kg; LD50 ([5]; sc, Male, subc.): 700 mg/kg; LD50 ([6]; ip, Female, i. p.): 640 mg/kg; LD50 ([6]; ip, Male, i. p.): 475 mg/kg; LD50 ([6]; iv, Female, i. v.): > 81 mg/kg; LD50 ([6]; iv, Male, i. v.): > 81 mg/kg; LD50 ([6]; po, Female, p. o.): > 15000 mg/kg; LD50 ([6]; po, Male, p. o.): > 15000 mg/kg; LD50 ([6]; sc, Female, subc.): 3900 mg/kg; LD50 ([6]; sc, Male, subc.): 3750 mg/kg
